Experimental data taken from ChEMBL document CHEMBL5154804, “Species-Selective Targeting of Fungal Hsp90: Design, Synthesis, and Evaluation of Novel 4,5-Diarylisoxazole Derivatives for the Combination Treatment of Azole-Resistant Candidiasis” (J Med Chem, 2022).

How the values were obtained:
Candida albicans [1] = experiment: Synergistic antifungal activity against fluconazole-resistant Candida albicans 311 assessed as inhibition of fungal growth in presence of fluconazole by checker board microdilution assay; type: functional
Candida albicans [2] = experiment: Synergistic antifungal activity against fluconazole-resistant Candida albicans 100 assessed as inhibition of fungal growth in presence of fluconazole by checker board microdilution assay; type: functional
[3] = Binding affinity to recombinant Candida albicans Hsp90 NBD expressed in Escherichia coli by SPR assay
Candida albicans [4] = experiment: Synergistic antifungal activity against fluconazole-resistant Candida albicans 632 assessed as inhibition of fungal growth in presence of fluconazole by checker board microdilution assay; type: functional
Candida albicans [5] = experiment: Synergistic antifungal activity against fluconazole-resistant Candida albicans 901 assessed as inhibition of fungal growth in presence of fluconazole by checker board microdilution assay; type: functional
Candida albicans [6] = experiment: Synergistic antifungal activity against fluconazole-resistant Candida albicans 103 assessed as inhibition of fungal growth in presence of fluconazole by checker board microdilution assay; type: functional
Candida albicans [7] = experiment: Synergistic antifungal activity against fluconazole-resistant Candida albicans 904 assessed as inhibition of fungal growth in presence of fluconazole by checker board microdilution assay; type: functional
Candida albicans [8] = experiment: Potentiation of fluconazole-induced antifungal activity against fluconazole-resistant Candida albicans 904 assessed as fluconazole MIC by checker board microdilution assay; type: functional
Candida albicans [9] = experiment: Synergetic antifungal activity against fluconazole-resistant Candida albicans 100 assessed as fractional inhibitory concentration index in presence of fluconazole by checker board microdilution assay; type: functional
Candida albicans [10] = experiment: Antifungal activity against fluconazole-resistant Candida albicans 901 assessed as inhibition of fungal growth by checker board microdilution assay; type: functional
[11] = Metabolic stability in human liver microsomes assessed as microsomal intrinsic clearance in presence of NADPH cofactor under shaking condition for 10 mins measured after 5 to 60 mins by LC-MS/MS analysis; type: ADME, Microsome; settings: time 15-70 min
[12] = Metabolic stability in human liver microsomes assessed as intrinsic clearance in presence of NADPH cofactor under shaking condition for 10 mins measured after 5 to 60 mins by LC-MS/MS analysis; type: ADME, Microsome; settings: time 15-70 min
CYP2D6 = CYP2D6 (Homo sapiens, UniProt P10635); experiment: Inhibition of CYPD6 in human liver microsome at 10 uM using dextromethorphan as substrate incubated for 10 mins in presence of NADPH cofactor by LC-MS/MS analysis; type: ADME; settings: liver microsomes, probe dextromethorphan
Candida albicans [13] = experiment: Synergetic antifungal activity against fluconazole-resistant Candida albicans 632 assessed as fractional inhibitory concentration index in presence of fluconazole by checker board microdilution assay; type: functional
Candida albicans [14] = experiment: Potentiation of fluconazole-induced antifungal activity against fluconazole-resistant Candida albicans 632 assessed as fluconazole MIC by checker board microdilution assay; type: functional
CYP1A2 = molecular target: T1, CYP1A2 (Homo sapiens, UniProt P05177); experiment: Inhibition of CYP1A2 in human liver microsome at 10 uM using phenacetin as substrate incubated for 10 mins in presence of NADPH cofactor by LC-MS/MS analysis; type: ADME; settings: liver microsomes, probe phenacetin
T1 sequence (P05177 whole entry): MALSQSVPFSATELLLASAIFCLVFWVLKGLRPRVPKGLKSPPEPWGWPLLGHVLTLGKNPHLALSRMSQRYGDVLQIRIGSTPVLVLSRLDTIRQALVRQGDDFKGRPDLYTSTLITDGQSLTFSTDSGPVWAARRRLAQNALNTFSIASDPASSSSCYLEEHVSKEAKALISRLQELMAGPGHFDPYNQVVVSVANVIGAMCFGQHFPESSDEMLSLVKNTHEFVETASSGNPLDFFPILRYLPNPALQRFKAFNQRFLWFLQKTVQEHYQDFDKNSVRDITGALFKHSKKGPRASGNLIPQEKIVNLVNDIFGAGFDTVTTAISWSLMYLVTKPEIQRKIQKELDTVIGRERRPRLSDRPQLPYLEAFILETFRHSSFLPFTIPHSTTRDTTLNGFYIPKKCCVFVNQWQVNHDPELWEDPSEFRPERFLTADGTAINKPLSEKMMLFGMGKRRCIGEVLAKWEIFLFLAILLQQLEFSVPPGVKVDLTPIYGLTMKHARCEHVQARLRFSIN

[15] = Metabolic stability in human liver microsomes assessed as compound remaining in presence of NADPH cofactor under shaking condition for 10 mins measured after 60 mins by LC-MS/MS analysis; type: ADME, Microsome; settings: time 70 min, read-out: Stability
Candida albicans [16] = experiment: Potentiation of fluconazole-induced antifungal activity against fluconazole-resistant Candida albicans 901 assessed as fluconazole MIC by checker board microdilution assay; type: functional
Candida albicans [17] = experiment: Synergetic antifungal activity against fluconazole-resistant Candida albicans 311 assessed as fractional inhibitory concentration index in presence of fluconazole by checker board microdilution assay; type: functional
CYP3A4 = CYP3A4 (Homo sapiens, UniProt P08684); experiment: Inhibition of CYP3A4 in human liver microsome at 10 uM using midazolam as substrate incubated for 10 mins in presence of NADPH cofactor by LC-MS/MS analysis; type: ADME; settings: liver microsomes, probe midazolam
[18] = Cytotoxicity against human BEAS-2B cell assessed as inhibition of cell growth after 24 hrs by MTT assay; type: toxicity, cell-based; settings: BEAS-2B cells
[19] = Stability in human plasma assessed as half life at 120 mins by LC-MS/MS analysis; type: ADME, cell-free
Candida albicans [20] = experiment: Antifungal activity against fluconazole-resistant Candida albicans 632 assessed as inhibition of fungal growth by checker board microdilution assay; type: functional
Candida albicans [21] = experiment: Antifungal activity against fluconazole-resistant Candida albicans 311 assessed as inhibition of fungal growth by checker board microdilution assay; type: functional
MCF7 = experiment: Cytotoxicity against human MCF7 cell assessed as inhibition of cell growth after 24 hrs by MTT assay; type: functional, cell-based; settings: MCF7, 24 h
CYP2C9 = CYP2C9 (Homo sapiens, UniProt P11712); experiment: Inhibition of CYP2C9 in human liver microsome at 10 uM using diclofenac as substrate incubated for 10 mins in presence of NADPH cofactor by LC-MS/MS analysis; type: ADME; settings: liver microsomes, probe diclofenac
[22] = Metabolic stability in human liver microsomes assessed as half life in presence of NADPH cofactor under shaking condition for 10 mins measured after 5 to 60 mins by LC-MS/MS analysis; type: ADME, Microsome; settings: time 15-70 min
HepG2 = experiment: Cytotoxicity against human HepG2 cell assessed as inhibition of cell growth after 24 hrs by MTT assay; type: functional, cell-based; settings: HepG2, 24 h
Candida albicans [23] = experiment: Synergetic antifungal activity against fluconazole-resistant Candida albicans 904 assessed as fractional inhibitory concentration index in presence of fluconazole by checker board microdilution assay; type: functional
Candida albicans [24] = experiment: Potentiation of fluconazole-induced antifungal activity against fluconazole-resistant Candida albicans 103 assessed as fluconazole MIC by checker board microdilution assay; type: functional
CYP2C19 = CYP2C19 (Homo sapiens, UniProt P33261); experiment: Inhibition of CYP2C19 in human liver microsome at 10 uM using S-mephenytoin as substrate incubated for 10 mins in presence of NADPH cofactor by LC-MS/MS analysis; type: ADME; settings: liver microsomes, probe S-mephenytoin
Candida albicans [25] = experiment: Synergetic antifungal activity against fluconazole-resistant Candida albicans 901 assessed as fractional inhibitory concentration index in presence of fluconazole by checker board microdilution assay; type: functional
Candida albicans [26] = experiment: Potentiation of fluconazole-induced antifungal activity against fluconazole-resistant Candida albicans 311 assessed as fluconazole MIC by checker board microdilution assay; type: functional
A549 = experiment: Cytotoxicity against human A549 cell assessed as inhibition of cell growth after 24 hrs by MTT assay; type: functional, cell-based; settings: A549, 24 h
Candida albicans [27] = experiment: Antifungal activity against fluconazole-resistant Candida albicans 100 assessed as inhibition of fungal growth by checker board microdilution assay; type: functional
RAW264.7 = experiment: Cytotoxicity against mouse RAW264.7 cell assessed as inhibition of cell growth after 24 hrs by MTT assay; type: functional, cell-based; settings: RAW264.7, 24 h
[28] = Stability in human plasma assessed as compound remaining at 120 mins by LC-MS/MS analysis; type: ADME, cell-free; settings: read-out: Stability
Candida albicans [29] = experiment: Antifungal activity against fluconazole-resistant Candida albicans 103 assessed as inhibition of fungal growth by checker board microdilution assay; type: functional
[30] = Cytotoxicity against mouse NIH3T3 cell assessed as inhibition of cell growth after 24 hrs by MTT assay; type: toxicity, cell-based; settings: NIH3T3 cells
Candida albicans [31] = experiment: Synergetic antifungal activity against fluconazole-resistant Candida albicans 103 assessed as fractional inhibitory concentration index in presence of fluconazole by checker board microdilution assay; type: functional
Candida albicans [32] = experiment: Potentiation of fluconazole-induced antifungal activity against fluconazole-resistant Candida albicans 100 assessed as fluconazole MIC by checker board microdilution assay; type: functional
[33] = Cytotoxicity against mouse BV-2 cell assessed as inhibition of cell growth after 24 hrs by MTT assay; type: toxicity, cell-based; settings: BV-2 cells
Candida albicans [34] = experiment: Antifungal activity against fluconazole-resistant Candida albicans 904 assessed as inhibition of fungal growth by checker board microdilution assay; type: functional
[35] = Cytotoxicity against human THLE-2 cell assessed as inhibition of cell growth after 24 hrs by MTT assay; type: toxicity, cell-based; settings: THLE-2 cells

CYP2D6, sequence (P10635 whole entry): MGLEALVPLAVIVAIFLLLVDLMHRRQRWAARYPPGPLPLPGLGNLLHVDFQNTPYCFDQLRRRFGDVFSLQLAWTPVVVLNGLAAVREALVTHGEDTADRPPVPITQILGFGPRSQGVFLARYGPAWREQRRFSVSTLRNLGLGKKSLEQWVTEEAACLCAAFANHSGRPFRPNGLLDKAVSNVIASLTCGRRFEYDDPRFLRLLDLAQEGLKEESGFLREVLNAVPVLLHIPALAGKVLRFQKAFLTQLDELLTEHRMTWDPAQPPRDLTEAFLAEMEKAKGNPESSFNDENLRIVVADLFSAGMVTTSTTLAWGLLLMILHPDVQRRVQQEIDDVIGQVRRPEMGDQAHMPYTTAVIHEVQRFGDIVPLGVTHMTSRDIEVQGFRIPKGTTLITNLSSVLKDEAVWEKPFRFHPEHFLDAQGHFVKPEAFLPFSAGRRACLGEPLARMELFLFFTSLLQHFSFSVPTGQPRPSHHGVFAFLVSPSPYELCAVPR
CYP3A4, sequence (P08684 whole entry): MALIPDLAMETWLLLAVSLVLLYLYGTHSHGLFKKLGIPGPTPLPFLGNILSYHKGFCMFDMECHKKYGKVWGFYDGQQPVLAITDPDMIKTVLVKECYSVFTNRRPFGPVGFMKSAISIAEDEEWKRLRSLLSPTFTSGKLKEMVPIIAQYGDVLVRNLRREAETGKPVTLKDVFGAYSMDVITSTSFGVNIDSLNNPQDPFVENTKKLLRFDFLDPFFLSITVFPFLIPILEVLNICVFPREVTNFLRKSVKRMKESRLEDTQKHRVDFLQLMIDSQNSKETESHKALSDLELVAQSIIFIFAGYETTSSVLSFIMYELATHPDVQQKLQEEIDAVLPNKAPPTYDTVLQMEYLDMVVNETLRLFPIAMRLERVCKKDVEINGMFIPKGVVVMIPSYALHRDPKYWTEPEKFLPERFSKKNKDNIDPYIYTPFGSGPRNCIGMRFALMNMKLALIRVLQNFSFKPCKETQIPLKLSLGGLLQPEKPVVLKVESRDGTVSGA
CYP2C9, sequence (P11712 whole entry): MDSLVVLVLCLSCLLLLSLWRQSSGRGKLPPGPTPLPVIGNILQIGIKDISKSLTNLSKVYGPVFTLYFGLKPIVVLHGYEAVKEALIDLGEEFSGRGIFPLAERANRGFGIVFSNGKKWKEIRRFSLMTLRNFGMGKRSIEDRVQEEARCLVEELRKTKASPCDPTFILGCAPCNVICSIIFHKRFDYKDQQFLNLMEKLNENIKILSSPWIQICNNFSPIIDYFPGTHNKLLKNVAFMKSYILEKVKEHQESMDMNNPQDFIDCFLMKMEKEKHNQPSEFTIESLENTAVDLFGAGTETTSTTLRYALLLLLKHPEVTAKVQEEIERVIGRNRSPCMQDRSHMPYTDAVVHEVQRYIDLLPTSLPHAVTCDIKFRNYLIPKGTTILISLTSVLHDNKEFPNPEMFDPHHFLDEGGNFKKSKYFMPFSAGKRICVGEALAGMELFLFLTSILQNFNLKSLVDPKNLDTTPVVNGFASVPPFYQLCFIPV
CYP2C19, sequence (P33261 whole entry): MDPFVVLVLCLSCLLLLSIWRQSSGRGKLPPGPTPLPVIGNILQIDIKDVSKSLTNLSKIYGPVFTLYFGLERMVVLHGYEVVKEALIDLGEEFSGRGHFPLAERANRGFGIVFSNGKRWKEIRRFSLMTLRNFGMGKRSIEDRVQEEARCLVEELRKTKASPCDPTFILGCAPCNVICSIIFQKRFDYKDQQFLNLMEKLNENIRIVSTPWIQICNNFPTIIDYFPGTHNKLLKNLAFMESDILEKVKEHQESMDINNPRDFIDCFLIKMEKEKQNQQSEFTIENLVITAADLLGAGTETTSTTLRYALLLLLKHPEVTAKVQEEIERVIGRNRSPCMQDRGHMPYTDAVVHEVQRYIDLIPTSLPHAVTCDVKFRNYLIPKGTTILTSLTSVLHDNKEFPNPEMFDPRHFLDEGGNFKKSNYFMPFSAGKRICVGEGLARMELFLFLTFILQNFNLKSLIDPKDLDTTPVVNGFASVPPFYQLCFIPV

Compound: C[C@@H]1C[C@H]2O[C@@H]2/C=C\C=C\C(=O)Cc2c(Cl)c(O)cc(O)c2C(=O)O1 [RADICICOL]
- MIC80 (Candida albicans [1]): 1 µg/mL
- MIC80 (Candida albicans [2]): 0.5 µg/mL
- Kd [3]: 0.002 µM
- MIC80 (Candida albicans [4]): 1 µg/mL
- MIC80 (Candida albicans [5]): 1 µg/mL
- MIC80 (Candida albicans [6]): 1 µg/mL
- MIC80 (Candida albicans [7]): 0.5 µg/mL

Compound: CNC(=O)c1noc(-c2cc(-c3ccc(C)cc3)c(O)cc2O)c1-c1ccc(CN2CCCCC2)cc1
- MIC80 (Candida albicans [8]): 0.5 µg/mL
- fractional inhibitory concentration index (FICI) (Candida albicans [9]): 0.047
- MIC80 (Candida albicans [10]): > 64 µg/mL
- CLint [11]: 32 µL/min/mg
- CLint [12]: 28.8 mL/min/kg
- inhibition at 10 min, 10 µM (CYP2D6): 24.8%
- MIC80 (Candida albicans [1]): 0.5 µg/mL
- fractional inhibitory concentration index (FICI) (Candida albicans [13]): 0.062
- MIC80 (Candida albicans [14]): 2 µg/mL
- inhibition at 10 min, 10 µM (CYP1A2): 17.7%
- remaining at 1.167 h [15]: 38.3%
- MIC80 (Candida albicans [2]): 1 µg/mL
- MIC80 (Candida albicans [16]): 1 µg/mL
- fractional inhibitory concentration index (FICI) (Candida albicans [17]): 0.023
- inhibition at 10 min, 10 µM (CYP3A4): 17.7%
- MIC80 (Candida albicans [4]): 2 µg/mL
- IC50 at 24 h [18]: 11.6 µM
- half-life [19]: 2.18 h
- MIC80 (Candida albicans [20]): > 64 µg/mL
- MIC80 (Candida albicans [21]): > 64 µg/mL
- IC50 (MCF7): 15.6 µM
- inhibition at 10 min, 10 µM (CYP2C9): 44.6%
- half-life [22]: 0.722 h
- MIC80 (Candida albicans [5]): 0.25 µg/mL
- IC50 (HepG2): 24.9 µM
- fractional inhibitory concentration index (FICI) (Candida albicans [23]): 0.01
- MIC80 (Candida albicans [6]): 0.5 µg/mL
- MIC80 (Candida albicans [24]): 2 µg/mL
- inhibition at 10 min, 10 µM (CYP2C19): 48.5%
- fractional inhibitory concentration index (FICI) (Candida albicans [25]): 0.02
- MIC80 (Candida albicans [7]): 0.125 µg/mL
- MIC80 (Candida albicans [26]): 1 µg/mL
- IC50 (A549): 10.8 µM
- MIC80 (Candida albicans [27]): > 64 µg/mL
- IC50 (RAW264.7): 3.65 µM
- remaining at 2 h [28]: 55.2%
- MIC80 (Candida albicans [29]): > 64 µg/mL
- IC50 at 24 h [30]: 0.46 µM
- fractional inhibitory concentration index (FICI) (Candida albicans [31]): 0.039
- MIC80 (Candida albicans [32]): 2 µg/mL
- IC50 at 24 h [33]: 3.04 µM
- MIC80 (Candida albicans [34]): > 64 µg/mL
- IC50 at 24 h [35]: 2.79 µM

Compound: Cc1ccc(-c2cc(-c3onc(C(=O)NC(C)C)c3-c3ccc(CN4CCOCC4)cc3)c(O)cc2O)cc1
- MIC80 (Candida albicans [1]): 64 µg/mL
- MIC80 (Candida albicans [2]): 16 µg/mL
- MIC80 (Candida albicans [4]): 8 µg/mL
- MIC80 (Candida albicans [5]): 8 µg/mL
- MIC80 (Candida albicans [6]): 64 µg/mL
- MIC80 (Candida albicans [7]): 4 µg/mL
